Article PMC3275588, “Cellular Growth Kinetics Distinguish a Cyclophilin Inhibitor from an HSP90 Inhibitor as a Selective Inhibitor of Hepatitis C Virus” (PLoS ONE, 2012)
“And” between values parts separate entries of the source, which are not always exact repeats. Equal values may be shown once. Read-outs that look alike come from different tables or passages of the source.

Experiments:
[1] = system: Infectious HCV (2a) Min3 virus in non-dividing Lunet-CD81 cells; test: Extracellular HCV titer in HCV-infected non-dividing cultures; assay type: cell-based, hepatitis C virus; settings: for reduction of infectious HCV titer: 10×EC50 (0.35 µM)
Procedure: (§1) Because 17-AAG slows cellular proliferation at concentrations similar to its effective concentration for inhibiting HCV replication, we next assessed whether it inhibited HCV replication in non-dividing cells. We first established a non-dividing monolayer of Lunet-CD81 cells and then infected that monolayer with cell-culture adapted virus capable of spreading and infecting all of the cells in a culture. […] When the fully-infected non-dividing cultures were treated with DMSO alone, the extracellular viral titer remained relatively constant at between 10^5 and 10^6 TCID50/ml over time (Fig. 6A). […] The reduction in HCV titer caused by 17-AAG, may at least in part, result from the modest toxicity observed in the non-dividing monolayers at the concentrations used.
HCV-infected non-dividing cultures were established by methods adapted from Sainz and Chisari. Briefly, Lunet-CD81 cells were seeded in 12-well plates at a density of 50,000 cells/well. The plates were incubated over-night at 37°C and subsequently DMSO was added to 1% final concentration. Cells were allowed to grow to confluence over three days. Infectious HCV (2a) with three adaptive mutations (the Min3 virus) (core K78E, NS2 W879R, and NS4B K1761N) was then added to each well at an MOI of five. […] 200 µl aliquots of the extracellular medium were saved daily, stored at −80°C, and subsequently used for infectious viral titering. After three days, the compound-medium was refreshed and time points were collected for seven days. Viral titers as a percentage of the DMSO-treated control were measured through diluting the extracellular medium 40-fold and using it to infect naïve Lunet-CD81 cells. After 72 hours of incubation, intracellular HCV replication was measured by following NS3-4A protease cleavage of a europium-labeled peptide.

[2] = system: luciferase-encoding HCV replicon; test: HCV replicon Renilla luciferase antiviral assay; assay type: cell-based, hepatitis C virus; settings: three days post drug addition
Procedure: (§2) Using a stable cell line replicating a luciferase-encoding HCV replicon, we measured viral replication levels (Renilla luciferase) across a range of drug concentrations (2 nM to 44.4 µM) three days post drug addition. In parallel, we measured intracellular esterase activity as a surrogate for cell viability using the Calcein AM reagent.
(§3) Renilla luciferase replicon cell assays were performed as previously described. Calcein AM (Anaspec, Fremont, CA) and CellTiter-Glo (Promega, Madison, WI) readouts were performed as instructed by the manufacturer.

[3] = system: genotype 1a replicon cells; test: Cell number by count of Hoechst-stained nuclei; assay type: cell-based; settings: three days; for number of cells per image / effect on number of cells per image: 1 µM compound
Procedure: (§4) For direct assessment of cell number, genotype 1a replicon cells were seeded in 384 well plates at 1500 cells/well. Compounds were added as previously described. Cells were fixed in 1% paraformaldehyde (Electron Microscopy Sciences) and 25 µg/ml Hoechst 33342 (Invitrogen) in PBS for 30 minutes at room temperature. The fixed cells were washed twice with PBS, and images of each well were acquired with the ImageXpress Micro (Molecular Devices, Sunnyvale, CA). Nuclei were quantified with the cell scoring application in MetaXpress (Molecular Devices, Sunnyvale, CA).

HCV replicon cells [4] = test: Trypan-blue exclusion viable cell count; assay type: cell-based; settings: 1 µM, multiple timepoints post drug addition
Procedure: Cells treated were trypsinized and quantified at multiple timepoints post drug addition (Fig. 5C).
(§5) To assess cellular growth, 96 well plates ImageLock plates (Essen Instruments, Ann Arbor, MI) were seeded at a density of 5×10^3 cells/well in culture medium without G418. Percent confluence was quantified using bright phase images (at 10× magnification) acquired of each well every four hours in an IncuCyte (Essen Instuments, Ann Arbor, MI). Alternatively, 7.5×10^4 cells/well were plated in 6 well plates. Each day post drug addition, cells were dislodged from the tissue culture plate using 350 µL trypsin-EDTA and then quenched with 150 µL fetal bovine serum. The number of cells that exclude trypan-blue was determined using the Vi-Cell (Beckman Coulter, Fullerton, CA) in triplicate.

HCV replicon cells [5] = test: CellTiter-Glo intracellular ATP (cell viability); settings: three day assay
Procedure: as §3

HCV replicon cells [6] = test: Cellular growth by percent confluence (IncuCyte time-lapse microscopy); assay type: cell-based; settings: for effect on kinetics of cellular proliferation: 1 µM, % confluence every four hours; for minimum inhibitory concentration (MIC) for growth rate: lowest concentration with significant decrease in growth rate
Text: To distinguish between these two mechanisms, we directly measured cellular confluence (the percent of the culture well occupied by cells, % confluence) every four hours and quantified cellular replication rates.
We next determined if 17-AAG slows cell growth at the same concentration at which it inhibits HCV replication. We quantified growth rate by assessing the change in % confluence between days 1 and 2 (% confluence/day) and measured the effect of growth rate as a function of dose.
as §5

HCV replicon cells [7] = test: Calcein AM intracellular esterase activity (cell viability)
Procedure: as §2, §3

[8] = system: adapted HCV (2a) in dividing cells; test: Extracellular HCV titer in fully-infected dividing cultures; assay type: cell-based, hepatitis C virus
Procedure: As a comparative control, we performed the same compound-treatment using fully-infected cultures that were still dividing (see Materials and Methods). […] The inhibitory effect of 17-AAG was diminished only as the cell cultures reached confluence (days 3 and 4 post-compound addition) (Fig. 6B).
As a comparative control, fully-infected, growing cell cultures were prepared as well. Briefly, cells were plated at 25,000 cells/well on 12-well plates. After the cells adhered to the plate (four hours post-seeding), they were infected at an MOI of five using adapted HCV (2a) (see above). The HCV infection was permitted to spread until the cultures were fully infected (three days post-infection). Subsequently, compounds were added and extracellular medium was removed each day and analyzed as described above.

[9] = system: non-dividing Lunet-CD81 monolayers; test: Cell number in non-dividing monolayers
Procedure: as §1

HCVcc Min3 virus = test: Antiviral potency in rapidly-dividing virus-infected cells (NS3-4A protease activity); assay type: cell-based, hepatitis C virus
Procedure: To assess the antiviral potency of compounds in rapidly-dividing virus-infected cells. we adapted a method from a previously described assay. Briefly, 1500 cells per well were plated in 384 well-plates. Infection with the HCVcc Min3 virus (core K78E, NS2 W879R, and NS4B K1761N) was followed by addition of compound as described. After three days, intracellular NS3-4A protease activity was assessed. Luciferase, Calcein, CellTiter-Glo, and NS3-4A levels were expressed as a percent of the no-drug control.
Supplementary file pone.0030286.s001.tif: Figure S1 CsA and 17-AAG maintain potency, similar to rapidly-dividing replicon cells, in rapidly-dividing virus-infected cells. The normalized amount of virus, as measured by enzymatic activity of the NS3-4A protease, was determined as a function of dose. […] (TIF) Click here for additional data file.

[10] = CellTiter-Glo intracellular ATP (cell viability)
Procedure: as §3

[11] = Calcein AM intracellular esterase activity (cell viability)
Procedure: as §2, §3

[12] = Cell number by count of Hoechst-stained nuclei; assay type: cell-based; settings: genotype 1a HCV replicon cells; Hoechst-stained nuclei, three days
Procedure: as §4

Structure (SMILES) | number of cells per image [3] | effect on number of viable cells (HCV replicon cells [4]) | effect on kinetics of cellular proliferation (HCV replicon cells [6]) | minimum inhibitory concentration (MIC) for growth rate (HCV replicon cells [6]) [µM] | CC50 at 3 days [10] [nM] | CC50 at 3 days [11] [nM] | EC50 ([2]; Hepatitis C virus, 72 h) [nM] | CC50 at 3 days [12] [nM] | effect on number of cells per image [3] | other results
C=CCNC1=C2C[C@@H](C)C[C@H](OC)[C@H](O)[C@@H](C)/C=C(\C)[C@H](OC(N)=O)[C@@H](OC)/C=C\C=C(/C)C(=O)NC(=CC1=O)C2=O [17-AAG, 17-(Allylamino)-17-demethoxygeldanamycin] | ~22 % of the controls | reduced the number of viable cells equally effectively | slowed the kinetics of cellular proliferation significantly | 0.022 | – | – | – | – | – | antiviral effect on HCV titer ([1]; non-dividing cell-culture model of HCV replication): little antiviral effect; reduction of infectious HCV titer ([1]; non-dividing cells, Day 7): 0.3 log; reduction of infectious HCV titer ([1]; non-dividing cells, day 2): 0.6 log; EC50 [2]: 12.1 nM and 12 nM; CC50 ([3]; Hoechst-stained nuclei): 5 nM; CC50 (HCV replicon cells [5]; read-out: CC50 Intracellular ATP, CellTiter-Glo): 38 nM; growth rate (HCV replicon cells [6]; 22 nM, change in % confluence between days 1 and 2): 18.0+/−1.1 % confluence/day; CC50 (HCV replicon cells [7]; read-out: CC50 Calcein, intracellular esterase activity, three day assay): 21000 nM; reduction of level of infectious HCV ([8]; dividing cells, 10×EC50, after 24 hours of treatment): roughly 2 logs; number of cells ([9]; non-dividing monolayers, 10×EC50): 74 % of the DMSO-treated control; EC50 (HCVcc Min3 virus; rapidly-dividing virus-infected cells, NS3-4A protease activity, three days, read-out: EC50): 35 nM
COc1ccc2c(O[C@@H]3C[C@H]4C(=O)N[C@]5(C(=O)O)C[C@H]5/C=C\CCCCC[C@H](NC(=O)OC5CCCC5)C(=O)N4C3)cc(-c3csc(NC(C)C)n3)nc2c1 [BILN-2061] | – | – | – | – | – | – | – | – | – | suppression of infectious HCV titer ([1]; non-dividing cells, 10×EC50, sustained over 7-day time course): 2 log; effect on viral titers ([8]; dividing and non-dividing cells, 10×EC50): inhibited viral titers in both dividing and non-dividing cells; effect on number of cells ([9]; human, 10 ×EC50): neither CsA nor BILN 2061-treatment decreased the number of cells; EC50 (HCVcc Min3 virus; Hepatitis C virus, 72 h): 140 nM
COc1cc2c(c(OC)c1OC)-c1ccc(OC)c(=O)cc1[C@@H](NC(C)=O)CC2 [Colchicine, colchicine] | – | – | – | – | 16 | > 44400 | – | – | – | intracellular ATP signal (HCV replicon cells [5]; maximal effect): < 7 % of the untreated controls
Nc1ccn([C@@H]2O[C@H](CO)[C@@H](O)C2(F)F)c(=O)n1 [Gemcitabine, gemcitabine] | ~22 % of the controls | – | – | – | 6 | > 44400 | 12 | 4 | – | –
CNC(=O)c1c(-c2ccc(F)cc2)oc2cc(N(CCO)S(C)(=O)=O)c(C3CC3)cc12 [HCV-796] | – | Neither CsA nor HCV-796 treatment affected cell viability | – | – | > 44400 | > 44400 | 15 | > 44400 | Neither 1 µM CsA (Fig. 4C) nor HCV-796 (Fig. 4A) altered the number of cells per image | toxicity by cell number ([3]; dose response): non-toxic at all concentrations tested; effect on cell proliferation (growth rate as a function of dose) (HCV replicon cells [6]; any concentration tested): did not significantly impair cell proliferation at any concentration tested; cytotoxicity (intracellular esterase activity) (HCV replicon cells [7]; 2 nM to 44.4 µM, three days): without any observable cytotoxicity
COc1ccc(C[C@H](N)C(=O)N[C@H]2[C@@H](O)[C@H](n3cnc4c(N(C)C)ncnc43)O[C@@H]2CO)cc1 [Puromycin, puromycin] | – | reduced the number of viable cells equally effectively | rapid elimination of cells | 0.205 | 516 | 1070 | 290 | 52 | eliminated all cells | difference between CC50 (toxic concentration) and EC50 (antiviral concentration) (HCV replicon cells [7]; Calcein assay vs replicon assay): ≤ 4 fold
